Data reported in patent US4419123A, “Herbicidal 4-trifluoromethyl-3'-carbon-substituted-4'-substituted diphenyl ethers” (Rohm and Haas Company, priority 1981, dated 1983).

Experiments:
[1] = Preemergence herbicidal activity (% control) against dicot weeds; conditions: pre-emergence, 336 h; for activity at 2241.7 g/ha: read-out: Herbicidal activity (% control), preemergence, dicots, 2 lb./A., average, about two weeks after application; for activity at 4483.4 g/ha: read-out: Herbicidal activity (% control), preemergence, dicots, 4 lb./A., average, about two weeks after application; for activity at 11208.5 g/ha: read-out: Herbicidal activity (% control), preemergence, dicots, 10 lb./A., average, about two weeks after application
[2] = Preemergence herbicidal activity (% control) against monocot weeds; assay type: in vivo; conditions: pre-emergence, 336 h, average, about two weeks after application, read-out: Herbicidal activity (% control), preemergence, monocots; for activity at 2241.7 g/ha: 2 lb./A.; for activity at 4483.4 g/ha: 4 lb./A.; for activity at 11208.5 g/ha: 10 lb./A.
Source text: (§1) barnyardgrass (Echinochloa crusgalli) crabgrass (Digitaria spp.) nutsedge (Cyperus esculentus)
(§2) At 2 and 4 pounds per acre:
(§3) **Bermudagrass (Cynodon dactylon)
(§4) *downy brome (Bromus tectorum) foxtail (Setaria faberii)
(§5) Johnsongrass (Sorghum halepense) […]
(§6) quackgrass (Agropyron repens)
(§7) *ryegrass (Lolium perenne)
(§8) *wild oats (Avena factua)
(§9) *yellow millet (Panicum miliaceum)
(§10) The following test procedure is employed.

[3] = Postemergence herbicidal activity (% control) against monocot weeds; assay type: in vivo; conditions: post-emergence, 336 h, average, about two weeks after application, read-out: Herbicidal activity (% control), postemergence, monocots; for activity at 2241.7 g/ha: 2 lb./A.; for activity at 4483.4 g/ha: 4 lb./A.; for activity at 11208.5 g/ha: 10 lb./A.
Source text: as §1, §2, §3, §4, §5, §6, §7, §8, §9, §10

[4] = Postemergence herbicidal activity (% control) against dicot weeds; conditions: post-emergence, 336 h; for activity at 4483.4 g/ha: read-out: Herbicidal activity (% control), postemergence, dicots, 4 lb./A., average, about two weeks after application; for activity at 2241.7 g/ha: read-out: Herbicidal activity (% control), postemergence, dicots, 2 lb./A., average, about two weeks after application

Row | SMILES | activity at 2241.7 g/ha [1] [%] | activity at 4483.4 g/ha [1] [%] | activity at 2241.7 g/ha [2] [%] | activity at 4483.4 g/ha [2] [%] | activity at 2241.7 g/ha [3] [%] | activity at 4483.4 g/ha [3] [%] | activity at 4483.4 g/ha [4] [%] | activity at 2241.7 g/ha [4] [%] | activity at 11208.5 g/ha [1] [%] | activity at 11208.5 g/ha [2] [%] | activity at 11208.5 g/ha [3] [%]
1 | C#CCOc1cc(Oc2ccc(C(F)(F)F)cc2Cl)ccc1[N+](=O)[O-] [Example 13] | 72 | 90 | 78 | 76 | 100 | 77 | 98 |  |  |  | 
2 | CN(C)CCOc1cc(Oc2ccc(C(F)(F)F)cc2Cl)ccc1[N+](=O)[O-] [Example 17, 2-chloro-α,α,α-trifluoro-p-tolyl-3-(2-dimethylaminoethoxy)-4-nitrophenyl ether] | 31 | 84 | 20 | 51 | 39 | 45 | 89 | 98 |  |  | 
3 | CCSC(=O)N(C(=O)SCC)c1cc(Oc2ccc(C(F)(F)F)cc2Cl)ccc1[N+](=O)[O-] [Example 46] | 87 | 20 | 34 | 0 | 0 | 0 | 30 | 4 |  |  | 
4 | Cc1cc(Oc2ccc(C(F)(F)F)cc2C#N)ccc1[N+](=O)[O-] [Example 9] | 67 | 66 | 81 | 90 | 82 | 97 | 81 | 75 | 92 | 99 | 100
5 | CCN(C(=O)NC)c1cc(Oc2ccc(C(F)(F)F)cc2Cl)ccc1[N+](=O)[O-] [Example 55, 2-Chloro-α,α,α-trifluoro-p-tolyl-3-(3-methyl-1-ethylureido)-4-nitrophenyl ether] |  | 73 |  | 91 | 31 | 69 | 95 | 96 |  |  | 
6 | CCOc1cc(Oc2ccc(C(F)(F)F)cc2C#N)ccc1[N+](=O)[O-] [Example 7, 2-Cyano-α,α,α-trifluoro-p-tolyl-3-ethoxy-4-nitrophenyl ether] | 54 | 57 | 65 | 65 | 82 | 75 | 77 | 80 | 60 | 61 | 100
7 | CC(Oc1cc(Oc2ccc(C(F)(F)F)cc2Cl)ccc1[N+](=O)[O-])C(N)=O (stereo not drawn) [Example 51, 2-chloro-α,α,α-trifluoro-p-tolyl-3-(1-carbamoylethoxy)-4-nitrophenyl ether] | 100 | 100 | 96 | 79 | 86 | 75 | 100 | 98 |  |  | 
8 | O=[N+]([O-])c1ccc(Oc2ccc(C(F)(F)F)cc2Cl)cc1N1CCOCC1 [Example 28, 2-chloro-α,α,α-trifluoro-p-tolyl-3-morpholino-4-nitrophenyl ether] |  | 95 | 79 | 74 | 73 | 73 | 99 | 100 |  |  | 
9 | O=C(O)COc1cc(Oc2ccc(C(F)(F)F)cc2Cl)ccc1[N+](=O)[O-] [Example 23] | 87 | 64 | 55 | 90 | 71 | 82 | 100 | 100 |  |  | 
10 | CCSC(=O)Nc1cc(Oc2ccc(C(F)(F)F)cc2Cl)ccc1[N+](=O)[O-] [Example 45] | 77 | 58 | 68 | 13 | 53 | 17 | 88 | 78 |  |  | 
11 | CNC(=O)Nc1cc(Oc2ccc(C(F)(F)F)cc2Cl)ccc1[N+](=O)[O-] [Example 44] | 17 | 96 | 0 | 66 | 7 | 60 | 98 | 10 |  |  | 
